Experimental data from patent publication US5028614A, “Hydroxymethyl-indolizidines and quinolizidines and their use as α-glucosidase I inhibitors” (Merrell Dow Pharmaceuticals Inc., priority 1990, dated 1991).
Structures can show the parent of a compound that is named as a salt.

target: α-glucosidase I; assay: Microtiter plate assay for α-glucosidase I activity; assay type: biochemical; settings: [3H]G3M9N substrate, purified α-glucosidase I, pH 6.8, 37° C., one hour
Protocol: The [^3 H] glucose labeled oligosaccharides substrate (G3 M9 N) for glucosidase I was prepared by metabolically labeling exponentially growing BHK cells with [^3 H]galactose in the presence of 200μg/ml of castanospermine. BHK cells grown as monolayer were treated with 200μg/ml of castanospermine in DMEM (#430-1600) supplemented with 10% heat inactivated fetal calf serum, 2 mM L-glutamine and 1X of PSN antibiotic mixture. After three hour incubation with castanospermine, [1-^3 H] galactose (10μci/ml of media) was added to label the glycoproteins and cells were allowed to grow to confluency for an additional 48 hours. At the end of labeling period, the cells were washed with cold PBS and scraped with a rubber policeman. Cell pellet was heated for 10 minutes at 100° C. and exhaustively treated with pronase (usually 72 hrs) in 50 mM Tris pH 7.5 containing 10 mM CaCl2 and 1% Pronase under toluene atmosphere to obtain glycopeptides. The glycopeptides were separated on columns of Bio-gel P-4. The glycopeptides peak produced by castanospermine treatment was pooled, treated with Endo-H to release the oligosaccharides. The oligosaccharides obtained by endo-H hydrolysis were bound to a ConA column previously washed with buffer A (50 mM Tris pH 7.5 containing 500 mM NaCl) and equilibrated with buffer B (5 mM Sodium acetate buffer pH 5.5 containing 2 mM of each CaCl2, MgCl2 and MnCl2). The oligosaccharides were then eluted with buffer B containing 100 mM α-methylmannoside. The oligosaccharides eluted from ConA column were further purified and characterized on a calibrated Biogel P-4 column (1.5×200 cm, (-) 400 mesh). The purified oligosaccharides having GLc3 Man9 GlcNAc structure were used as substrate in these studies. […]
ConA-sepharose was washed first with buffer A, then with buffer B as described above, and resuspended in buffer B (gel: buffer, 1:1) before use. […] A 150 μl aliquot of supernatant was removed and counted.

SMILES | IC50 [nM]
OC[C@@H]1[C@@H](O)[C@H](O)[C@@H](O)[C@H]2CCCN21 [Compound VII] | 300
OC[C@@H]1[C@@H](O)[C@H](O)[C@@H](O)[C@H]2[C@@H](O)CCCN21 [Compound XXI, [1S-(1α,2β,3α,4β,9α,9aβ)]-octahydro-4-(hydroxy-methyl) -2H-quinolizine-1,2,3,9-tetrol hydrochloride] | 150
O=C(O[C@H]1CCCN2[C@H]1[C@H](O)[C@@H](O)[C@H](O)[C@H]2CO)c1ccccc1 [XVII, [1S-(1α,2β,3α,4β,9α,9aβ) ]-octahydro-4-(hydroxymethyl)-2H-quinolizine-1,2,3,9-tetrol 9-benzoate] | 29000
